Measured values reported in patent publication US8901315B2, “Thienopyrazole derivative having PDE7 inhibitory activity” (Daiichi Sankyo Company, Limited, priority 2004, dated 2014).
Counter-ions that a name gives are not always drawn. Like-named read-outs stand apart in the source and are kept apart here.

Columns and labels:
[1] = molecular target: PDE 7 (phosphodiesterase VII) (Homo sapiens (Human), UniProt Q13946); assay: PDE 7 inhibiting effect (3H-cAMP hydrolysis, PDE 7 active fraction from MOLT-4 cells); type: biochemical; conditions: read-out: PDE7 IC50
Summary of the method: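 PDE7 taken from the soluble fraction of human MOLT-4 T cells (homogenised in pH 7.5 Tris buffer, 100,000×G spin), partially purified on HiTrap Q with a 0–0.8 M NaCl gradient. Inhibition measured as ³H-cAMP hydrolysis, with product separated using Sephadex-QAE in 10 mM HEPES-Na pH 7.0.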

[2] = molecular target: PDE 4 (phosphodiesterase IV); assay: PDE 4 inhibiting effect (3H-cAMP hydrolysis, PDE 4 active fraction from Balb/c mouse liver); type: biochemical; conditions: PDE 4 fraction from Balb/c mice liver, 0.064 μM cAMP, 2 hours at 25° C.; read-out: PDE4 IC50
Summary of the method: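 PDE4 was taken from the soluble liver fraction of male Balb/c mice (12 weeks), purified on DEAE sepharose with a sodium acetate gradient. Inhibition was measured as hydrolysis of 3H-cAMP. The reaction was followed by Sephadex-QAE treatment in HEPES-Na pH 7.0.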

[3] = PDE 7 fraction from MOLT-4 cells, 0.064 μM cAMP, 10 μM rolipram, 2 hours at 25° C.

Sequence of PDE 7 (phosphodiesterase VII) (Q13946 whole entry): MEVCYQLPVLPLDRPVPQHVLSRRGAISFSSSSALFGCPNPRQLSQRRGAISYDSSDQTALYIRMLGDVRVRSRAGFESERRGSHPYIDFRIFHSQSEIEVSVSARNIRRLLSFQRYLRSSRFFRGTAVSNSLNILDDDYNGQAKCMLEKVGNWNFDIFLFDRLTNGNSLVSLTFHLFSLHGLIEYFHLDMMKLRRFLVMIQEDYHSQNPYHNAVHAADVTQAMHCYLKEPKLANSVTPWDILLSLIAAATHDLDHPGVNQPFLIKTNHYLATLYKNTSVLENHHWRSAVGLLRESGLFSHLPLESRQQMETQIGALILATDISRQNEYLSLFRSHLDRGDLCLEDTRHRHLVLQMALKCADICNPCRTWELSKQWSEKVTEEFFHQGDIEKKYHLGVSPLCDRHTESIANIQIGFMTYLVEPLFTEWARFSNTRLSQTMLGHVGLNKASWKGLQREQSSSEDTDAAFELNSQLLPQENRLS

| SMILES | IC50 [1, 3] [µM] | IC50 [2] [µM] | IC50 [1] [µM] |
| --- | --- | --- | --- |
| Cc1nn(C2CCCCC2)c2sc(C(=O)Nc3ccc(N4CCC(O)CC4)c(Cl)c3)cc12 [Example 162, N-[3-Chloro-4-(4-hydroxy-piperidinyl)phenyl]-1-cyclohexyl-3-methyl-1H-thieno[2,3-c]pyrazole-5-carboxamide] | 0.07 | 2 |  |
| CNC1CCN(c2ccc(NC(=O)c3cc4c(C)nn(C5CCCCC5)c4s3)cc2F)CC1 [Example 163, 1-Cyclohexyl-N-{3-fluoro-4-[4-(methylamino)-1-piperidinyl]phenyl}-3-methyl-1H-thieno[2,3-c]pyrazole-5-carboxamide] | 0.014 | 0.9 |  |
| CNC1CCN(c2ccc(NC(=O)c3cc4c(C)nn(C5CCCCC5)c4s3)cc2Cl)CC1 [Example 165, N-{3-Chloro-4-[4-(methylamino)-1-piperidinyl]phenyl}-1-cyclohexyl-3-methyl-1H-thieno[2,3-c]pyrazole-5-carboxamide] | 0.02 | 0.65 |  |
| Cc1nn(C2CCCCC2)c2sc(C(=O)N[C@H]3CC[C@H](N4CCN(C)CC4)CC3)cc12 [Example 166, 1-Cyclohexyl-3-methyl-N-[trans-4-(4-methyl-1-piperazinyl)-cyclohexyl]-1H-thieno[2,3-c]pyrazole-5-carboxamide] | 0.016 | 1.3 |  |
| Cc1nn(C2CCCCC2)c2sc(C(=O)N[C@H]3CC[C@H](N4CCCN(C)CC4)CC3)cc12 [Example 167, 1-Cyclohexyl-3-methyl-N-[trans-4-(4-methyl-1,4-diazepam-1-yl)-cyclohexyl]-1H-thieno[2,3-c]pyrazole-5-carboxamide] | 0.015 | 1 |  |
| COC1CCN([C@H]2CC[C@H](NC(=O)c3cc4c(C)nn(C5CCCCC5)c4s3)CC2)CC1 [Example 168, 1-Cyclohexyl-N-[trans-4-(4-methoxyl-1-piperidinyl)cyclohexyl]-3-methyl-1H-thieno[2,3-c]pyrazole-5-carboxamide] | 0.022 | 1.5 |  |
| Cc1nn(C2CCCCC2)c2sc(C(=O)N[C@H]3CC[C@H](N4CCCNCC4)CC3)cc12 [Example 170, 1-Cyclohexyl-N-[trans-4-(1,4-diazepam-1-yl)cyclohexyl]-3-methyl-1H-thieno[2,3-c]pyrazole-5-carboxamide] | 0.022 | 1.3 |  |
| CC(=O)N1CCCN([C@H]2CC[C@H](NC(=O)c3cc4c(C)nn(C5CCCCC5)c4s3)CC2)CC1 [Example 171, N-[trans-4-(4-Acetyl-1,4-diazepam-1-yl)cyclohexyl]-1-cyclohexyl-3-methyl-1H-thieno[2,3-c]pyrazole-5-carboxamide] | 0.037 | 1.7 |  |
| COCCN(C)[C@H]1CC[C@H](NC(=O)c2cc3c(C)nn(C4CCCCC4)c3s2)CC1 [Example 172, 1-cyclohexyl-N-{trans-4-[(2-methoxyethyl)(methyl)amino]-cyclohexyl}-3-methyl-1H-thieno[2,3-c]pyrazole-5-carboxamide] | 0.048 | 9.4 |  |
| Cc1nn(C2CCCCC2)c2sc(C(=O)N[C@H]3CC[C@H](N4CCC(O)CC4)CC3)cc12 [Example 176, 1-Cyclohexyl-N-[trans-4-(4-hydroxy-1-piperidinyl)cyclohexyl]-3-methyl-1H-thieno[2,3-c]pyrazole-5-carboxamide] | 0.02 | 1.7 |  |
| Cc1nn(C2CCCCC2)c2sc(C(=O)N[C@H]3CC[C@H](N4C[C@@H](C)O[C@@H](C)C4)CC3)cc12 [Example 177, 1-Cyclohexyl-N-{trans-4-[(2R,6S)-2,6-dimethylmorpholinyl]-cyclohexyl}-3-methyl-1H-thieno[2,3-c]pyrazole-5-carboxamide] | 0.013 | 1.6 |  |
| CNC1CCN([C@H]2CC[C@H](NC(=O)c3cc4c(C)nn(C5CCCCC5)c4s3)CC2)CC1 [Example 179, 1-Cyclohexyl-3-methyl-N-{trans-4-[4-(methylamino)-1-piperidinyl]-cyclohexyl}-1H-thieno[2,3-c]pyrazole-5-carboxamide] | 0.0031 | 0.75 |  |
| CC(=O)N(C)C1CCN([C@H]2CC[C@H](NC(=O)c3cc4c(C)nn(C5CCCCC5)c4s3)CC2)CC1 [Example 180, N-(trans-4-{4-[Acetyl(methyl)amino]-1-piperidinyl}cyclohexyl)-1-cyclohexyl-3-methyl-1H-thieno[2,3-c]pyrazole-5-carboxamide] | 0.01 | 1.4 |  |
| Cc1nn(C2CCCCC2)c2sc(C(=O)N[C@H]3CC[C@H](N4CCC(N(C)C)CC4)CC3)cc12 [Example 181, 1-Cyclohexyl-N-{trans-4-[4-(dimethylamino)-1-piperidinyl]-cyclohexyl}-3-methyl-1H-thieno[2,3-c]pyrazole-5-carboxamide] | 0.0086 | 0.86 |  |
| Cc1nn(C2CCCCC2)c2sc(C(=O)N[C@H]3CC[C@H](N4CCC(N)CC4)CC3)cc12 [Example 184, N-[trans-4-(4-Amino-1-piperidinyl)cyclohexyl]-1-cyclohexyl-3-methyl-1H-thieno[2,3-c]pyrazole-5-carboxamide] | 0.0068 | 1.1 |  |
| Cc1nn(C2CCCCC2)c2sc(C(=O)N[C@H]3CC[C@H](N4CCNCC4)CC3)cc12 [Example 188, 1-Cyclohexyl-3-methyl-N-[trans-4-(1-piperazinyl)cyclohexyl]-1H-thieno[2,3-c]pyrazole-5-carboxamide] | 0.0065 | 0.7 |  |
| CC(=O)N1CCN([C@H]2CC[C@H](NC(=O)c3cc4c(C)nn(C5CCCCC5)c4s3)CC2)CC1 [Example 190, N-[trans-4-(4-Acetyl-1-piperazinyl)cyclohexyl]-1-cyclohexyl-3-methyl-1H-thieno[2,3-c]pyrazole-5-carboxamide] | 0.0035 | 1.7 |  |
| Cc1nn(C2CCCCC2)c2sc(C(=O)Nc3ccc(N4CCCN(C)CC4)c(F)c3)cc12 [Example 191, 1-Cyclohexyl-N-[3-fluoro-4-(4-methyl-1,4-diazepam-1-yl)phenyl]-3-methyl-1H-thieno[2,3-c]pyrazole-5-carboxamide hemifumarate] |  | 0.98 | 0.0089 |
| Cc1nn(C2CCOCC2)c2sc(C(=O)Nc3ccc(N4CCN(C)CC4)cc3)cc12 [Example 196, 3-Methyl-N-[4-(4-methyl-1-piperazinyl)phenyl]-1-tetrahydro-2H-pyran-4-yl-1H-thieno[2,3-c]pyrazole-5-carboxamide] | 0.09 | 7.5 |  |
| Cc1nn(C2CCOCC2)c2sc(C(=O)Nc3ccc(N4CCN(C)CC4)c(F)c3)cc12 [Example 197, N-[3-Fluoro-4-(4-methyl-piperazinyl)phenyl]-3-methyl-1-tetrahydro-2H-pyran-4-yl-1H-thieno[2,3-c]pyrazole-5-carboxamide] | 0.079 | 4.4 |  |
| Cc1nn(C2CCCCC2)c2sc(C(=O)Nc3ccc(CN4CCOCC4)cc3)cc12 [Example 199, 1-Cyclohexyl-3-methyl-N-[4-(4-morpholinylmethyl)phenyl]-1H-thieno[2,3-c]pyrazole-5-carboxamide fumarate] | 0.056 | 5.8 |  |
| Cc1nn(C2CCCCC2)c2sc(C(=O)Nc3ccc(CCN(C)C)cc3)cc12 [Example 200, 1-Cyclohexyl-N-{4-[(dimethylamino)ethyl]phenyl}-3-methyl-1H-thieno[2,3-c]pyrazole-5-carboxamide] | 0.016 | 1.9 |  |
| Cc1nn(C2CCCCC2)c2sc(C(=O)Nc3ccc(CCN4CCOCC4)cc3)cc12 [Example 201, 1-Cyclohexyl-3-methyl-N-{4-[2-(4-morpholinyl)ethyl]phenyl}-1H-thieno[2,3-c]pyrazole-5-carboxamide] | 0.018 | 2.2 |  |
| Cc1nn(C2CCCCC2)c2sc(C(=O)Nc3ccc(CN4C(=O)CN(C)C4=O)cc3)cc12 [Example 202, 1-Cyclohexyl-methyl-N-{4-[(3-methyl-2,5-dioxo-1-imidazolidinyl)-methyl]phenyl}-1H-thieno[2,3-c]pyrazole-5-carboxamide] | 0.033 | 2.4 |  |
| Cc1nn(C2CCCCC2)c2sc(C(=O)Nc3ccc(N4C(=O)CN(C)C4=O)cc3)cc12 [Example 203, 1-Cyclohexyl-3-methyl-N-[4-(3-methyl-2,5-dioxo-1-imidazolidinyl)-phenyl]-1H-thieno[2,3-c]pyrazole-5-carboxamide] | 0.0061 | 1.4 |  |
| Cc1nn(C2CCCCC2)c2sc(C(=O)N[C@H]3CC[C@H](C(=O)O)CC3)cc12 [Example 205, 4-{[(1-Cyclohexyl-3-methyl-1H-thieno[2,3-c]pyrazol-5-yl)carbonyl]-amino}cyclohexane carboxylic acid] | 0.091 | 14 |  |
| Cc1nn(C2CCCCC2)c2sc(C(=O)N[C@H]3CC[C@H](CO)CC3)cc12 [Example 206, 1-Cyclohexyl-N-[4-(hydroxymethyl)cyclohexyl]-3-methyl-1H-thieno[2,3-c]pyrazole-5-carboxamide] | 0.05 | 3.8 |  |
| Cc1nn(C2CCCCC2)c2sc(C(=O)N[C@H]3CC[C@H](C(=O)N(C)C)CC3)cc12 [Example 208, 1-Cyclohexyl-N-{4-[(dimethylamino)carbonyl]cyclohexyl}-3-methyl-1H-thieno[2,3-c]pyrazole-5-carboxamide] | 0.025 | 3.8 |  |
| Cc1nn(C2CCCCC2)c2sc(C(=O)N[C@H]3CC[C@H](C#N)CC3)cc12 [Example 209, N-(4-Cyanocyclohexyl)-1-cyclohexyl-3-methyl-1H-thieno[2,3-c]-pyrazole-5-carboxamide] | 0.077 | 7.4 |  |
